Values joined by “and” are separate entries in the source; they are usually repeats but may differ in a detail not shown here. Equal entries are not always repeated. Where two headings read alike, the source gives them in different places.
Experiments:
Mice = details: cited from earlier work; for LD50: Mice
[1] = test system: diabetic (streptozotocin-treated) rats; assay: Intravenous administration in diabetic rats, plasma glucose; assay type: in vivo; details: for % Initial plasma glucose conc. / Actual plasma glucose: iv 0.5 μ/kg
Protocol: (§1) The term "diabetic rat" in the following tests refers to rats having been treated with streptozoticin by intravenous injection at a dosage of 75 mg/kg at least 4 days prior to the experiments in question. All rats used in the experiments had been fasting 12-18 hours prior to the experiments. Blood samples were taken at appropriate intervals as disclosed in the tables from a vein cannula which was implanted in a jugular vein. During the experiments, rats were awake, were able to move freely and had access to water (but no food). Plasma glucose was measured on a Beckman Glucose Analyzer 2 employing the enzymatic reaction of β-D-glucose with oxygen and measuring oxygen consumption rather than hydrogen peroxide formation.
A. Intravenous (iv) Administration of Regular and Modified Insulin in Diabetic Rats
From 15 min to 45 min after iv administration, the induced hypoglycemic effect was more pronounced in regular-insulin-treated aminals.

[2] = test system: diabetic (streptozotocin-treated) rats; assay: Oral administration in diabetic rats, plasma glucose; assay type: in vivo, rat; details: for Glucose / Glucose Level (% initial level): unmodified insulin oral 80 μ/kg
Protocol: as §1
B. Oral Administration of Regular and Modified Insulin (at 80μ/kg) in Normal and Diabetic Rats.
The three controls were regular insulin, a carrier complex of SDS:TEA, and a complex of albumin:SDS:TEA in the same weight ratio as than in the insulin complex; i.e., albumin:SDS:TEA=5:7.5:3.6.
The results of oral administrations of modified insulin and carrier complex (SDS:TEA=1:1 by mole) in the amount equivalent to that in the sandwich complex of insulin calculated based on 80μof insulin per kg of rat in normal rats are shown in Tables 3 and 4. The results of oral administrations of modified insulin, regular insulin, carrier complex and the sandwich complex of albumin (albumin:SDS:TEA in a weight ratio of 5:7.5:3.6) in diabetic rats are shown in Tables 5, 6, 7 and 8 respectively.

[3] = diabetic rats, 15 min, mean ± SD
[4] = diabetic rats, 15 min, single rats
[5] = diabetic rats, 30 min, mean ± SD
[6] = diabetic rats, 30 min, single rats
[7] = diabetic rats, 45 min, mean ± SD
[8] = diabetic rats, 45 min, single rats
[9] = diabetic rats, 60 min, mean ± SD
[10] = diabetic rats, 60 min, single rats
[11] = diabetic rats, 90 min, mean ± SD
[12] = diabetic rats, 90 min, single rats
[13] = diabetic rats, 120 min, mean ± SD
[14] = diabetic rats, 120 min, single rats
[15] = diabetic rats, 180 min, mean ± SD
[16] = diabetic rats, 180 min, single rats
[17] = diabetic rats, 300 min, mean ± SD
[18] = diabetic rats, 300 min, single rats

Cn1ccnc1 [1-methylimidazole]
LD50 (Mice; ipr.): 380 mg/kg | toxicity (in words) (Mice; mouse, in vivo): very slight | LD50 (Mice; oral): 1500 mg/kg

Insulin: Insulin (bovine pancreas, crystalline; 25.5 μ/mg; Sigma)
% Initial plasma glucose conc. [1, 3]: 63.8% | Actual plasma glucose [1, 3]: 239 mg % | % Initial plasma glucose conc. [1, 4]: 46.1% and 63.8% and 57.7% and 84.5% and 47.9% and 82.5% | Actual plasma glucose [1, 4]: 197 mg % and 176 mg % and 214 mg % and 359 mg % and 113 mg % and 372 mg % | % Initial plasma glucose conc. [1, 5]: 50.0% | Actual plasma glucose [1, 5]: 185 mg % | % Initial plasma glucose conc. [1, 6]: 43.9% and 53.6% and 16.2% and 69.7% and 36.9% and 79.4% | Actual plasma glucose [1, 6]: 358 mg % and 159 mg % and 148 mg % and 60 mg % and 296 mg % and 87 mg % | % Initial plasma glucose conc. [1, 7]: 48.3% | Actual plasma glucose [1, 7]: 169 mg % | % Initial plasma glucose conc. [1, 8]: 36.5% and 59.1% and 31.0% and 56.2% and 41.5% and 65.3% | Actual plasma glucose [1, 8]: 296 mg % and 132 mg % and 163 mg % and 84 mg % and 239 mg % and 98 mg % | % Initial plasma glucose conc. [1, 9]: 49.2 ± 15.4% | Actual plasma glucose [1, 9]: 176 ± 83 mg % | % Initial plasma glucose conc. [1, 10]: 38.4% and 57.6% and 27.2% and 51.8% and 48.3% and 71.6% | Actual plasma glucose [1, 10]: 323 mg % and 139 mg % and 159 mg % and 101 mg % and 220 mg % and 114 mg % | % Initial plasma glucose conc. [1, 11]: 53.0 ± 9% | Actual plasma glucose [1, 11]: 190 ± 69 mg % | % Initial plasma glucose conc. [1, 12]: 45.4% and 53.6% and 50.4% and 46.1% and 51.7% and 70.7% | Actual plasma glucose [1, 12]: 319 mg % and 168 mg % and 148 mg % and 187 mg % and 196 mg % and 122 mg % | % Initial plasma glucose conc. [1, 13]: 50.1 ± 10.1% | Actual plasma glucose [1, 13]: 177 ± 32 mg % | % Initial plasma glucose conc. [1, 14]: 42.3% and 58.0% and 56.9% and 35.1% and 60.6% and 47.8% | Actual plasma glucose [1, 14]: 215 mg % and 153 mg % and 160 mg % and 211 mg % and 149 mg % and 143 mg % | % Initial plasma glucose conc. [1, 15]: 57.8% | Actual plasma glucose [1, 15]: 196 mg % | % Initial plasma glucose conc. [1, 16]: 58.8% and 59.8% and 76.3% and 37.9% and 67.8% and 45.9% | Actual plasma glucose [1, 16]: 207 mg % and 213 mg % and 165 mg % and 283 mg % and 161 mg % and 160 mg % | % Initial plasma glucose conc. [1, 17]: 65.7% | Actual plasma glucose [1, 17]: 225 mg % | % Initial plasma glucose conc. [1, 18]: 60.8% and 58.1% and 89.2% and 46.6% and 90.7% and 48.6% | Actual plasma glucose [1, 18]: 219 mg % and 220 mg % and 167 mg % and 331 mg % and 198 mg % and 214 mg % | hypoglycemic effect (in words), rat #285 ([1]; iv administration, diabetic rat #285 treated with both agents): progressive hypoglycemic effect | hypoglycemic effect (in words) ([1]; iv administration, diabetic rats): progressive, systemic, hypoglycemic effects for five hours in all animals | systemic hypoglycemic effect (in words) ([2]; oral administration): does not result in a systemic, hypoglycemic effect | Glucose ([2]; 15 min, Mean ± Std. Dev.): 273 ± 112 mg/100 ml | Glucose Level (% initial level) ([2]; 15 min, Mean ± Std. Dev.): 134 ± 20% | Glucose ([2]; 15 min, single rats): 145 mg/100 ml and 371 mg/100 ml and 214 mg/100 ml and 363 mg/100 ml | Glucose Level (% initial level) ([2]; 15 min, single rats): 119% and 155.2% and 146.6% and 115% | Glucose ([2]; 30 min, Mean ± Std. Dev.): 325 ± 28 mg/100 ml | Glucose Level (% initial level) ([2]; 30 min, Mean ± Std. Dev.): 104.7 ± 19.8% | Glucose ([2]; 30 min, single rats): 293 mg/100 ml and 343 mg/100 ml and 340 mg/100 ml | Glucose Level (% initial level) ([2]; 30 min, single rats): 122.6% and 107.9% and 83.5% | Glucose ([2]; 45 min, Mean ± Std. Dev.): 327 ± 82 mg/100 ml | Glucose Level (% initial level) ([2]; 45 min, Mean ± Std. Dev.): 105.6 ± 31.2% | Glucose ([2]; 45 min, single rats): 270 mg/100 ml and 421 mg/100 ml and 290 mg/100 ml | Glucose Level (% initial level) ([2]; 45 min, single rats): 113.0% and 132.4% and 71.3% | Glucose ([2]; 60 min, Mean ± Std. Dev.): 285 ± 87 mg/100 ml | Glucose Level (% initial level) ([2]; 60 min, Mean ± Std. Dev.): 124.1 ± 57.9% | Glucose ([2]; 60 min, single rats): 152 mg/100 ml and 309 mg/100 ml and 272 mg/100 ml and 329 mg/100 ml and 410 mg/100 ml and 239 mg/100 ml | Glucose Level (% initial level) ([2]; 60 min, single rats): 124.6% and 129.3% and 77.5% and 225.3% and 128.9% and 58.7% | Glucose ([2]; 120 min, Mean ± Std. Dev.): 270 ± 118 mg/100 ml | Glucose Level (% initial level) ([2]; 120 min, Mean ± Std. Dev.): 121.4 ± 79.4% | Glucose ([2]; 120 min, single rats): 122 mg/100 ml and 288 mg/100 ml and 251 mg/100 ml and 392 mg/100 ml and 411 mg/100 ml and 157 mg/100 ml | Glucose Level (% initial level) ([2]; 120 min, single rats): 100% and 120.5% and 71.5% and 268.5% and 129.2% and 38.6% | Glucose ([2]; 180 min, Mean ± Std. Dev.): 331 ± 127 mg/100 ml | Glucose Level (% initial level) ([2]; 180 min, Mean ± Std. Dev.): 123.3 ± 76.1% | Glucose ([2]; 180 min, single rats): 296 mg/100 ml and 226 mg/100 ml and 502 mg/100 ml and 422 mg/100 ml and 211 mg/100 ml | Glucose Level (% initial level) ([2]; 180 min, single rats): 123.9% and 64.5% and 243.8% and 132.7% and 51.8% | Glucose ([2]; 300 min, Mean ± Std. Dev.): 282 mg/100 ml | Glucose Level (% initial level) ([2]; 300 min, Mean ± Std. Dev.): 116.1 ± 75.0% | Glucose ([2]; 300 min, single rats): 290 mg/100 ml and 189 mg/100 ml and 342 mg/100 ml and 391 mg/100 ml and 196 mg/100 ml | Glucose Level (% initial level) ([2]; 300 min, single rats): 121.3% and 53.8% and 234.2% and 123.0% and 48.2%

From US4582820A, “Orally administered biologically active peptides and proteins” (Research Corporation, priority 1982, dated 1986)
